Laboratory results taken from patent US12662491B2 (Redona Therapeutics, Inc., priority 2020, dated 2026).
Like-named read-outs stand apart in the source and are kept apart here.

Biological target: T1, Zcchc11 enzyme (Homo sapiens, UniProt Q5TAX3)
T1 construct: made in house; host or cells: HEK293 cells (Zcchc11); E. coli Rosetta II (LIN28A)
T1 sequence (Q5TAX3 212-1420): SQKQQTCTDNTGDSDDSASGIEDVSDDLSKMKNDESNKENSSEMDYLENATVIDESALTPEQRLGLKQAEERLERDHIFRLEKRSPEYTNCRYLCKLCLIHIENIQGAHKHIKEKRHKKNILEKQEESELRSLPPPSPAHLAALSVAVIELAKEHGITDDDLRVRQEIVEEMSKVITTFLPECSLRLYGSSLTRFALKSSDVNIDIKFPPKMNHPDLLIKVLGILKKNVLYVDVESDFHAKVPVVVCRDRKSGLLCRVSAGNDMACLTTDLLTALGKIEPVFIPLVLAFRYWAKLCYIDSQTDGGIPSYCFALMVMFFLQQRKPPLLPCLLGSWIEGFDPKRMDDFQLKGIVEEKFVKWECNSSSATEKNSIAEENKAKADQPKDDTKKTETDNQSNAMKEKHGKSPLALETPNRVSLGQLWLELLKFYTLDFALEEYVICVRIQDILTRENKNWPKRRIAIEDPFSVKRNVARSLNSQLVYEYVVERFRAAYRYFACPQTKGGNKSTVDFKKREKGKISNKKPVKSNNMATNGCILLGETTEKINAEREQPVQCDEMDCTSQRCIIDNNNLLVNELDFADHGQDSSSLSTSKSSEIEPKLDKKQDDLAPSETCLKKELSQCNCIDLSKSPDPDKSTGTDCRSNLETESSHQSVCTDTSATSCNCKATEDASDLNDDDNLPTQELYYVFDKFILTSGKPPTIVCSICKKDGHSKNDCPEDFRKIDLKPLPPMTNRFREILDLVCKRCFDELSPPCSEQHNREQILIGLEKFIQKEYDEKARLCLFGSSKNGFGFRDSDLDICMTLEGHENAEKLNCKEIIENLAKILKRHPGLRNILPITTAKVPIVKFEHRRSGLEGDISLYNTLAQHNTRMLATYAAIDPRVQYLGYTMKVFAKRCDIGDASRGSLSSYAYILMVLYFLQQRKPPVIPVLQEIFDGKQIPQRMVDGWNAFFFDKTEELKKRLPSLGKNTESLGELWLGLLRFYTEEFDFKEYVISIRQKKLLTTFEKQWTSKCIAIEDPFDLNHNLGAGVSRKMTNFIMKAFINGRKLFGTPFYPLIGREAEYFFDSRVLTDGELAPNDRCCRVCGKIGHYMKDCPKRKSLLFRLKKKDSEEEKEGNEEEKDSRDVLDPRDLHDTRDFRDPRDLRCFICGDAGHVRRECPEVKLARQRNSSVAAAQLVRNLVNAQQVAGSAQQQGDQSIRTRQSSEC
Assay: TUTase assay (Zcchc11 assay, Lin28a-dependent polyuridylation of pre-let-7)
Format: biochemical
Details: read-out: Potency Lin28a-dep Z11 IC50
Description: The purpose of the Zcchc11 assay is to determine compound potency against Zcchc11 enzyme through the measurement of IC50. Compound inhibition is measured as a function of polyuridine tails added to RNA substrates in the presence of active TUTase, UTP, and inhibitor. The Zcchc11 assay was done in a black, non-binding, 384 well plate (Corning #3575). All steps were performed at room temperature. For a typical assay, a 29 ul aliquot of assay buffer (50 mM HEPES pH 7.3, 150 mM KCl, 5 mM MgCl2, 10 mM DTT, 0.01% Triton X-100, 40 U/ml RNAsin (Promega)) containing LIN28A protein (final concentration: 10 nM) is added to each well. Next, 1 ul of compound in 100% DMSO is transferred from a compound dilution plate in which the compound is serially diluted. Next, 10 ul of a 5× mix of Zcchc11 and RNA substrate (5′-fluorescein labeled pre-let-7 miRNA (Dharmacon)) is added (final concentrations: 0.2 nM and 2 nM, respectively). The plate is placed on a plate shaker for 30 seconds to produce mixing, then incubated for 30 minutes. Next, 10 ul of a 5× mix of UTP and the quenching probe (3′-rhodamine labeled A20, polyadenosine nucleotide, (IDT)) is added (final concentrations: 5 uM and 4 nM, respectively). The plate is immediately placed in a Biotek Cytation 5 plate reader, and the time-dependent decrease in fluorescein fluorescence resulting from annealing of the A20 probe to polyuridine tails is recorded, using the kinetics mode of the reader. Reaction rates are obtained using linear fits to the early portion of progress curves. IC50 values are calculated using a four parameter fit with 100% enzyme activity determined from the DMSO control and 0% activity from control samples lacking UTP.
The LIN28A protein was expressed in and purified from E. coli, strain Rosetta II (Novagen). The entire coding sequence of the human, wild-type protein was cloned into expression vector pMAL (NEB), down-stream from a maltose-binding protein tag. The linker sequence contained a TEV protease cleavage site. The protein was purified from bacterial extracts using an MBP-Trap column (GE Healthcare Life Sciences), followed by tag cleavage and removal of the tag by ion-exchange chromatography. When necessary, contaminating bacterial RNA was removed using the procedure describe by Faehnle C R. et al. (2017) Multi-domain utilization by TUT4 and TUT7 in control of let-7 biogenesis. Nat Struct Mol Biol, 24:658-665.
The Zcchc11 protein was expressed in and purified from HEK293 cells. A truncated protein comprising residues 212-1420 of the human sequence was cloned into expression vector pTT5 (Viva Biotech) down-stream from a maltose-binding protein tag. The linker sequence contained a TEV protease cleavage site, and a FLAG tag was added to the carboxyl terminus of the protein. The protein was purified from cell extracts using an MBP-Trap column (GE Healthcare Life Sciences), followed by tag cleavage and further enrichment of the full length construct using anti-FLAG affinity media (Sigma Aldrich).
“+” represents an IC50 value that is greater than 50 μM; “++” represents an IC50 value that is greater than 10 μM and equal to or less than 50 μM; “+++” represents an IC50 value that is greater than 1 μM and equal to or less than 10 μM; and “++++” represents an IC50 value that is equal to or less than 1 μM.

[1] = Lin28a-dependent Zcchc11 (Z11) TUTase activity
[2] = Lin28a-dependent Zcchc11 (Z11) TUTase assay

| IC50 [1] [nM] | IC50 [2] [nM] | Structure (SMILES) | also measured |
| --- | --- | --- | --- |
| ≤ 1000 |  | COc1ccc(Cl)c(OC[C@H]2C[C@H]3C[C@H]3N2c2cc3c(cc2F)c(=O)c(C(=O)O)cn3-c2ccc(N(C)C)nc2)n1 [Compound 340, 7-[(1R,3R,5R)-3-{[(3-Chloro-6-methoxy-pyridin-2-yl)oxy]methyl}-2-azabicyclo [3.1.0]hexan-2-yl]-1-[6-(dimethyl-amino)pyridin-3-yl]-6-fluoro-4-oxoquinoline-3-carboxylic acid] |  |
|  | ≤ 1000 | COc1ccnc(OC[C@H]2C[C@H]3C[C@H]3N2c2cc3c(cc2F)c(=O)c(C(=O)O)cn3-c2ccc(N3CC(N(C)C)C3)nc2)c1C [Example 681, 1-(6-(3-(dimethylamino)azetidin-1-yl)pyridin-3-yl)-6-fluoro-7-((1R,3R,5R)-3-(((4-methoxy-3-methylpyridin-2-yl)oxy)methyl)-2-azabicyclo[3.1.0]hexan-2-yl)-4-oxo-1,4-dihydroquinoline-3-carboxylic acid] |  |
|  | ≤ 1000 | CNCCNc1ccc(-n2cc(C(=O)O)c(=O)c3cc(Cl)c(N4CCC[C@@H]4COc4ncccc4Cl)cc32)cn1 [Example 355, (R)-6-chloro-7-(2-(((3-chloropyridin-2-yl)oxy)methyl)pyrrolidin-1-yl)-1-(6-((2-(methylamino)ethyl)amino)pyridin-3-yl)-4-oxo-1,4-dihydro-quinoline-3-carboxylic acid] |  |
|  | ≤ 1000 | O=C(O)c1cn(-c2cncnc2)c2cc(N3CCC[C@@H]3COc3ncccc3Cl)c(Cl)cc2c1=O [Example 497] |  |
| ≤ 1000 |  | CN(C)C1CN(c2ccc(-n3cc(C(=O)O)c(=O)c4cc(Cl)c(N5CC(C6CCC6)C[C@@H]5COc5ncccc5Cl)cc43)cn2)C1 (mixture of isomers) [Compound 205, rac-6-chloro-7-((2R)-2-((3-chloropyridin-2-yl)oxy)methyl)-4-cyclobutyl-pyrrolidin-1-yl)-1-(6-(3-(dimethyl-amino)azetidin-1-yl)pyridin-3-yl)-4-oxo-1,4-dihydro-quinoline-3-carboxylic acido-quinoline-3-carboxylic acid] |  |
|  | ≤ 1000 | CN(C)C1CN(c2ccc(-n3cc(C(=O)O)c(=O)c4cc(C#N)c(N5C[C@@H](F)C[C@@H]5COc5ncccc5Cl)cc43)cn2)C1 [Example 572, 7-((2R,4S)-2-(((3-chloropyridin-2-yl)oxy)methyl)-4-fluoropyrrolidin-1-yl)-6-cyano-1-(6-(3-(dimethylamino)azetidin-1-yl)pyridin-3-yl)-4-oxo-1,4-dihydroquinoline-3-carboxylic acid] |  |
| ≤ 1000 |  | CN(C)C1CN(c2ccc(-n3cc(C(=O)O)c(=O)c4cc(F)c(N5CC(c6cccnc6)C[C@@H]5COc5ncccc5Cl)cc43)cn2)C1 (stereo partly drawn) [Compound 325, 7-[(2R)-2-[[(3-Chloropyridin-2-yl)oxy]methyl]-4-(pyridin-3-yl)pyrrolidin-1-yl]-1-[6-[3-(dimethyl-amino)azetidin-1-yl]pyridin-3-yl]-6-fluoro-4-oxoquinoline-3-carboxylic acid] |  |
|  |  | COCCN1CC(C)(n2cc(C(=O)O)c(=O)c3cc(Cl)c(N4CCC[C@@H]4COc4ncccc4Cl)cc32)C1 [Example 37, 6-Chloro-7-[(2R)-2-{[(3-chloropyridin-2-yl)oxy]methyl}pyrrolidin-1-yl]-1-[1-(2-methoxyethyl)-3-methylazetidin-3-yl]-4-oxo-1,4-dihydroquinoline-3-carboxylic acid] | IC50 (LIN28A 10 nM, Zcchc11 0.2 nM, 5′-fluorescein pre-let-7 miRNA 2 nM, UTP 5 uM, room temperature, 30 minutes pre-incubation): 1000 to 10000 nM |
|  | ≤ 1000 | COc1ccc(C)c(OC[C@H]2C[C@H]3C[C@H]3N2c2cc3c(cc2Cl)c(=O)c(C(=O)O)cn3-c2ccc(N3CC(N(C)C)C3)nc2)n1 [Example 676, 6-chloro-1-(6-(3-(dimethylamino)azetidin-1-yl)pyridin-3-yl)-7-((1R,3R,5R)-3-(((6-methoxy-3-methylpyridin-2-yl)oxy)methyl)-2-azabicyclo[3.1.0]hexan-2-yl)-4-oxo-1,4-dihydroquinoline-3-carboxylic acid] |  |
| ≤ 1000 |  | N#Cc1cc2c(=O)c(C(=O)O)cn(-c3ccc(N)nc3)c2cc1N1CCC[C@@H]1COc1ncccc1F [Compound 217] |  |
